Laboratory results reported in ChEMBL document CHEMBL5096149, “Recent Update on Targeting c-MYC G-Quadruplexes by Small Molecules for Anticancer Therapeutics” (J Med Chem, 2021).

Experiments:
Quadruplex DNA [1] = assay: Binding affinity to human c-MYC G-quadruplex (Pu24T) DNA assessed as first order binding constant by isothermal titration calorimetry method; assay type: nucleic-acid assay
Quadruplex DNA [2] = assay: Binding affinity to human c-MYC G-quadruplex (Pu24T) DNA assessed as second order binding constant by isothermal titration calorimetry method; assay type: nucleic-acid assay
Quadruplex DNA [3] = assay: Binding affinity to human c-MYC G-quadruplex (Pu24T) DNA assessed as first order binding constant by fluorescence spectroscopy; assay type: nucleic-acid assay
Quadruplex DNA [4] = assay: Binding affinity to human c-MYC G-quadruplex (Pu24T) DNA assessed as second order binding constant by fluorescence spectroscopy; assay type: nucleic-acid assay
Quadruplex DNA [5] = assay: Thermal stabilization of human c-MYC G-quadruplex (Pu24T) DNA assessed as change in melting temperature at 1:2 ratio by circular dichroism spectroscopy; assay type: nucleic-acid assay
HeLa [6] = assay: Cytotoxicity against human HeLa cells assessed as inhibition of cell viability incubated for 48 hrs by MTT assay; assay type: functional, cell-based
[7] = Cytotoxicity against human HEK cells assessed as inhibition of cell viability incubated for 48 hrs by MTT assay; assay type: functional, cell-based; details: HEK293, 48 h
Quadruplex DNA [8] = assay: Binding affinity to c-MYC G-quadruplex DNA (unknown origin) assessed as association constant by fluorescence spectroscopy; assay type: nucleic-acid assay
Quadruplex DNA [9] = assay: Thermal stabilization of c-MYC G-quadruplex DNA (unknown origin) assessed as change in melting temperature at 1:5 ratio by FRET melting assay; assay type: nucleic-acid assay
HT-1080 = assay: Antiproliferative activity against human HT-1080 cells assessed as inhibition of cell growth by celltiter-glo luminescent cell viability assay; assay type: functional, cell-based
HeLa [10] = assay: Antiproliferative activity against human HeLa cells assessed as inhibition of cell growth by XTT assay; assay type: functional, cell-based
A549 = assay: Antiproliferative activity against human A549 cells assessed as inhibition of cell growth by XTT assay; assay type: functional, cell-based
[11] = Antiproliferative activity against human Kidney epithelial cells assessed as inhibition of cell growth by XTT assay; assay type: toxicity, cell-based
Quadruplex DNA [12] = assay: Binding affinity to c-MYC G-quadruplex DNA (unknown origin) assessed as association rate constant by isothermal titration calorimetry method; assay type: nucleic-acid assay
MCF7 = assay: Antiproliferative activity against human MCF7 cells assessed as inhibition of cell growth by XTT assay; assay type: functional, cell-based

Question: Which K (Quadruplex DNA [1]) does the source give for `O=c1c(O)c(-c2ccc(O)c(O)c2)oc2cc(O)cc(O)c12` [QUERCETIN] here?
Answer: Its K is 1.57 10^7/M.

Question: What about the K (Quadruplex DNA [2]) of the same compound?
Answer: Its K is 8.5 10^5/M.

Question: What about the K (Quadruplex DNA [3]) of the same compound?
Answer: The K was 0.72 10^7/M.

Question: And the K (Quadruplex DNA [4])?
Answer: The K was 1.2 10^5/M.

Question: And the ΔTm (Quadruplex DNA [5])?
Answer: Its ΔTm is 10.3 °C.

Question: What about the IC50 (HeLa [6]) of the same compound?
Answer: Its IC50 is 4 µM.

Question: And the IC50 [7]?
Answer: Its IC50 is 0.12 µM.

Question: What does the source list for `CN(C)c1cccc2c(S(=O)(=O)N(Cc3cn(C(C)(C)C(=O)OC[C@H]4O[C@@H](n5cnc6c(=O)[nH]c(N)nc65)[C@@H]5OC(C)(C)O[C@@H]54)nn3)Cc3cn(C(C)(C)C(=O)OC[C@H]4O[C@@H](n5cnc6c(=O)[nH]c(N)nc65)[C@@H]5OC(C)(C)O[C@@H]54)nn3)cccc12`?
Answer: Ka (Quadruplex DNA [8]): 4.8 10^7/M; ΔTm (Quadruplex DNA [9]): 12.6 °C; IC50 (HT-1080): 18.9 µM

Question: For `CN(C)CCCOc1cc(C(=O)NCc2cn(-c3cccc(NC(=O)C4CCCN4)c3)nn2)cc(C(=O)NCc2cn(-c3cccc(NC(=O)C4CCCN4)c3)nn2)c1` (configuration not stated), which Ka (Quadruplex DNA [8]) is on record?
Answer: The Ka was 5.55 10^5/M.

Question: And the ΔTm (Quadruplex DNA [9])?
Answer: Its ΔTm is 15 °C.

Question: And the IC50 (HeLa [10])?
Answer: The IC50 was 8.3 µM.

Question: What about the IC50 (A549) of the same compound?
Answer: Its IC50 is 9.2 µM.

Question: What about the IC50 [11] of the same compound?
Answer: Its IC50 is > 50 µM.

Question: What about the Ka (Quadruplex DNA [12]) of the same compound?
Answer: Its Ka is 7 10^5/M.

Question: What about the IC50 (MCF7) of the same compound?
Answer: Its IC50 is 3.8 µM.
